In patent US10537575B2, “Phosphodiesterase inhibitors to repair brain and/or retinal injury in human newborns” (priority 2016, dated 2020):

Experiments:
[1] = oral sildenafil; known; cited from earlier work
[2] = Body weight and animal deaths in Vannucci rat model of term neonatal HIE
Procedure: A well-established Vannucci rat model of term neonatal HIE, which combined a left common carotid artery ligation and a 2 hour exposure to hypoxia (8% oxygen) in 10-day-old (P10) rat pups, was used for the experiments, since this model is generally recognized to mimic the brain injuries observed in human term asphyxiated newborns. Briefly, the 10-day-old male Long-Evans rat pups were weighed and then deeply anesthetized with an intraperitoneal injection of fentanyl (0.2 mg/kg) and midazolam (1 mg/kg) to the point of unresponsiveness to noxious stimulation. Lidocaine-prilocaine cream (EMLA®; AstraZeneca Inc.) was applied to the ventral neck skin 30 minutes before surgery. The skin was cleaned with 2% chlorhexidine solution followed by 70% alcohol. A vertical incision was made along the ventral surface of the neck. The left common carotid artery was located, isolated, and then ligated with a single tight suture. Following the unilateral ligation, the skin incision was closed with an adhesive (n-butyl cyanoacrylate; 3 M VetBond Tissue Adhesive®; 3 M USA). The anesthesia was reversed with an intraperitoneal injection of naloxone (0.1 mg/kg) and flumazenil (1 mg/kg). […] For each rat pup, anesthesia time and surgical time were kept to a minimal time of less than 5-10 minutes. The pups were allowed to recover for approximately 1.5 h after surgery and then were placed in a sealed hypoxia chamber (Plastic Concepts, North Billerica, USA). The sealed chamber was infused with nitrogen until a level of 8% oxygen was reached, which was maintained for 2 h (oxygen analyzer model 600, Engineered Systems & Designs, Newark, Del.). The pups were allowed to recover for 30 minutes and then were returned to their cages with the mother. The rats undergoing the whole procedure were considered as the hypoxic-ischemic (HI) group (n=10-12 animals/groups). Sham operated rat pups (identical procedure as the HI group, but not the ligation and hypoxia) served as the control group (n=10-12 animals/groups). The sample size of the current study was a sample size of convenience, subject to restrictions imposed by the institutional ethics committee that reviewed it, and based on the principles of the 3Rs (replacement, reduction, and refinement). Sham rat pups received the same sedation as HI rat pups permitting to control for the effect of sedation on the brain. Normal body temperature of both sham and HI rat pups, while they were separated from the mother, was maintained during the whole procedure (i.e., surgery±hypoxia) using warming blankets (Cincinnati Sub-Zero, Cincinnati, USA).

In the case of `CCCc1nn(C)c2c(=O)[nH]c(-c3cc(S(=O)(=O)N4CCN(C)CC4)ccc3OCC)nc12` [sildenafil], the oral bioavailability [1] is listed as “good oral bioavailability”, the “incidence of animal deaths” value ([2]; HI group, sildenafil 2 mg/kg) is listed as 4/12 and the “incidence of animal deaths” value ([2]; HI group, sildenafil 10 mg/kg) is listed as 2/11. The “incidence of animal deaths” value ([2]; HI group, sildenafil 50 mg/kg) was 3/11 and the “incidence of animal deaths” value ([2]; sham groups) was “no animals died”.
